Reference: the supplement of paper PMC9013687
± gives the standard deviation of the averaged measurements.

Tests used:
Danio rerio embryo [1] = experiment: EC50 Curvature_Increase
Protocol: (§1)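 Zebrafish embryos (UFZ-OBI strain) were exposed from 2 hpf for 48 h (2 dpf) or 96 h (4 dpf) at 28 °C; spontaneous tail coiling was scored at 25 hpf. Morphological features from automated image analysis (FishInspector), heart rate and locomotor response were fitted with drc models. Quantal endpoints were dichotomised at 2.5 SD from controls and fitted with a log-logistic model; heart rate, pigmentation and STC were normalised to the replicate control mean. Betamethasone was tested as betamethasone dipropionate, diflorasone as diflorasone diacetate.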

Danio rerio embryo [2] = experiment: EC20 LMR dark; higher = less potent; conditions: exposure time: 4 dpf
Protocol: as §1

Danio rerio embryo [3] = experiment: EC10 Eye-jaw distance_Decrease; higher = less potent; conditions: exposure time: 4 dpf
Protocol: as §1

Danio rerio embryo [4] = experiment: EC20 Eye-jaw distance_Decrease; higher = less potent; conditions: exposure time: 4 dpf
Protocol: as §1

Danio rerio embryo [5] = conditions: exposure time: 4 dpf
Protocol: as §1

Danio rerio embryo [6] = experiment: EC10 Otolith-eye distance_Decrease; higher = less potent; conditions: exposure time: 4 dpf
Protocol: as §1

Danio rerio embryo [7] = tested on: Danio rerio embryo
Protocol: as §1

Danio rerio embryo [8] = experiment: EC20 Body length_Decrease; higher = less potent
Protocol: as §1

Danio rerio embryo [9] = experiment: EC20 Bladder size_Decrease; higher = less potent; conditions: exposure time: 4 dpf
Protocol: as §1

Danio rerio embryo [10] = experiment: EC50 Eye size_Decrease; conditions: exposure time: 4 dpf
Protocol: as §1

Danio rerio embryo [11] = experiment: EC10 Bladder size_Decrease; higher = less potent; conditions: exposure time: 4 dpf
Protocol: as §1

Danio rerio embryo [12] = experiment: EC20 Curvature_Increase; higher = less potent
Protocol: as §1

Danio rerio embryo [13] = experiment: EC50 Eye-jaw distance_Decrease; conditions: exposure time: 4 dpf
Protocol: as §1

Danio rerio embryo [14] = experiment: EC10 LMR dark; higher = less potent; conditions: exposure time: 4 dpf
Protocol: as §1

Danio rerio embryo [15] = experiment: EC50 Otolith-eye distance_Decrease; conditions: exposure time: 4 dpf
Protocol: as §1

Danio rerio embryo [16] = experiment: EC10 Curvature_Increase; higher = less potent
Protocol: as §1

Danio rerio embryo [17] = experiment: EC50 Yolk sac size_Increase; conditions: exposure time: 4 dpf
Protocol: as §1

Danio rerio embryo [18] = experiment: EC20 Otolith-eye distance_Decrease; higher = less potent; conditions: exposure time: 4 dpf
Protocol: as §1

Danio rerio embryo [19] = experiment: EC20 Pericard size_Increase; higher = less potent
Protocol: as §1

Danio rerio embryo [20] = experiment: EC50 Bladder size_Decrease; conditions: exposure time: 4 dpf
Protocol: as §1

Danio rerio embryo [21] = experiment: EC10 Body length_Decrease; higher = less potent
Protocol: as §1

Danio rerio embryo [22] = experiment: EC20 Any effect; higher = less potent
Protocol: as §1

Danio rerio embryo [23] = experiment: EC50 Pericard size_Increase
Protocol: as §1

Danio rerio embryo [24] = experiment: EC10 Pericard size_Increase; higher = less potent
Protocol: as §1

Danio rerio embryo [25] = experiment: EC10 Yolk sac size_Increase; higher = less potent; conditions: exposure time: 4 dpf
Protocol: as §1

Danio rerio embryo [26] = experiment: EC50 Body length_Decrease
Protocol: as §1

Danio rerio embryo [27] = experiment: EC20 Yolk sac size_Increase; higher = less potent; conditions: exposure time: 4 dpf
Protocol: as §1

Danio rerio embryo [28] = experiment: spontaneous tail coiling frequency (coils/min/embryo); higher = more spontaneous movement; conditions: 25 hpf
Protocol: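 Spontaneous tail coilings of zebrafish embryos exposed from 2 hpf were recorded at 24-25 hpf in 1-min videos and detected by a KNIME workflow from grey-value variance. Betamethasone was tested as the dipropionate, diflorasone as the diacetate.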

Danio rerio embryo [29] = experiment: EC10 Any effect; higher = less potent
Protocol: as §1

For `Cc1ccc(-c2cc(C(F)(F)F)nn2-c2ccc(S(N)(=O)=O)cc2)cc1` [Celecoxib], the “EC50 Curvature Increase” value (Danio rerio embryo [1]; exposure time: 2 dpf) was 31.6 µM, the “EC50 Curvature Increase” value (Danio rerio embryo [1]; exposure time: 4 dpf) was 21.1 µM and the “EC20 LMR dark” value (Danio rerio embryo [2]) was 9.94 µM. For the same molecule, the “EC10 Eye-jaw distance Decrease” value (Danio rerio embryo [3]) was 9.89 µM, the “EC20 Eye-jaw distance Decrease” value (Danio rerio embryo [4]) was 11.8 µM and the “EC50 LMR dark” value (Danio rerio embryo [5]) was 13 µM. For the same molecule, the “EC10 Otolith-eye distance Decrease” value (Danio rerio embryo [6]) was 14.6 µM, the “EC50 Any effect” value (Danio rerio embryo [7]; exposure time: 2 dpf) was 13.9 µM and the “EC50 Any effect” value (Danio rerio embryo [7]; exposure time: 4 dpf) was 8.13 µM. The “EC50 STC bell shape” value (Danio rerio embryo [7]; exposure time: 25 h) was 32.2 µM, the “EC20 Body length Decrease” value (Danio rerio embryo [8]; exposure time: 2 dpf) was 21.9 µM and the “EC20 Body length Decrease” value (Danio rerio embryo [8]; exposure time: 4 dpf) was 10.2 µM. For the same molecule, the “EC20 Bladder size Decrease” value (Danio rerio embryo [9]) was 8.23 µM, the “EC50 Eye size Decrease” value (Danio rerio embryo [10]) was 13.4 µM and the “EC10 Bladder size Decrease” value (Danio rerio embryo [11]) was 7.91 µM. The “EC20 Curvature Increase” value (Danio rerio embryo [12]; exposure time: 2 dpf) was 30.5 µM, the “EC20 Curvature Increase” value (Danio rerio embryo [12]; exposure time: 4 dpf) was 15 µM and the “EC50 Eye-jaw distance Decrease” value (Danio rerio embryo [13]) was 15.9 µM. The “EC10 LMR dark” value (Danio rerio embryo [14]) was 8.51 µM, the “EC50 Otolith-eye distance Decrease” value (Danio rerio embryo [15]) was 21.4 µM and the “EC10 Curvature Increase” value (Danio rerio embryo [16]; exposure time: 2 dpf) was 29.8 µM. The “EC10 Curvature Increase” value (Danio rerio embryo [16]; exposure time: 4 dpf) was 12.3 µM, the “EC50 Yolk sac size Increase” value (Danio rerio embryo [17]) was 17.6 µM and the “EC20 Otolith-eye distance Decrease” value (Danio rerio embryo [18]) was 16.8 µM. For the same molecule, the “EC20 Pericard size Increase” value (Danio rerio embryo [19]; exposure time: 2 dpf) was 6.48 µM, the “EC20 Pericard size Increase” value (Danio rerio embryo [19]; exposure time: 4 dpf) was 9.76 µM and the “EC50 Bladder size Decrease” value (Danio rerio embryo [20]) was 8.8 µM. The “EC10 Body length Decrease” value (Danio rerio embryo [21]; exposure time: 2 dpf) was 20.1 µM, the “EC10 Body length Decrease” value (Danio rerio embryo [21]; exposure time: 4 dpf) was 8.57 µM and the “EC20 Any effect” value (Danio rerio embryo [22]; exposure time: 2 dpf) was 7.05 µM. The “EC20 Any effect” value (Danio rerio embryo [22]; exposure time: 4 dpf) was 2.94 µM, the “EC50 Pericard size Increase” value (Danio rerio embryo [23]; exposure time: 2 dpf) was 13.3 µM and the “EC50 Pericard size Increase” value (Danio rerio embryo [23]; exposure time: 4 dpf) was 14.1 µM. The “EC10 Pericard size Increase” value (Danio rerio embryo [24]; exposure time: 2 dpf) was 4.26 µM, the “EC10 Pericard size Increase” value (Danio rerio embryo [24]; exposure time: 4 dpf) was 7.87 µM and the “EC10 Yolk sac size Increase” value (Danio rerio embryo [25]) was 8.88 µM. For the same molecule, the “EC50 Body length Decrease” value (Danio rerio embryo [26]; exposure time: 2 dpf) was 25.2 µM, the “EC50 Body length Decrease” value (Danio rerio embryo [26]; exposure time: 4 dpf) was 13.6 µM and the “EC20 Yolk sac size Increase” value (Danio rerio embryo [27]) was 11.4 µM. For the same molecule, the “spontaneous tail coiling frequency” value (Danio rerio embryo [28]; 5 µM) was 2.65 ± 1.1, the “spontaneous tail coiling frequency” value (Danio rerio embryo [28]; 8.3 µM) was 2.21 and the “spontaneous tail coiling frequency” value (Danio rerio embryo [28]; 10 µM) was 2.87. For the same molecule, the “spontaneous tail coiling frequency” value (Danio rerio embryo [28]; 16.5 µM) was 2.73, the “spontaneous tail coiling frequency” value (Danio rerio embryo [28]; 17.5 µM) was 1.93 and the “spontaneous tail coiling frequency” value (Danio rerio embryo [28]; 24.8 µM) was 2.06. The “spontaneous tail coiling frequency” value (Danio rerio embryo [28]; 25 µM) was 2.15, the “spontaneous tail coiling frequency” value (Danio rerio embryo [28]; 32.5 µM) was 1.08 and the “spontaneous tail coiling frequency” value (Danio rerio embryo [28]; 33 µM) was 1.78. For the same molecule, the “spontaneous tail coiling frequency” value (Danio rerio embryo [28]; 40 µM) was 0.12, the “EC10 Any effect” value (Danio rerio embryo [29]; exposure time: 2 dpf) was 4.74 µM and the “EC10 Any effect” value (Danio rerio embryo [29]; exposure time: 4 dpf) was 1.62 µM.
